# Laboratory results published in PMC8704315, “Lichen-Derived Compounds and Extracts as Biologically Active Substances with Anticancer and Neuroprotective Properties” (Pharmaceuticals, 2021).
# “And” between values parts separate entries of the source, which are not always exact repeats. Identical values can stand only once. Like-named read-outs stand apart in the source and are kept apart here.
# What was measured:
# [1] = molecular target: BChE (Homo sapiens, UniProt P06276); format: biochemical; conditions: sample 142.9 μg/mL in the reaction mixture
# Chain of BChE (P06276 29-602, species assumed): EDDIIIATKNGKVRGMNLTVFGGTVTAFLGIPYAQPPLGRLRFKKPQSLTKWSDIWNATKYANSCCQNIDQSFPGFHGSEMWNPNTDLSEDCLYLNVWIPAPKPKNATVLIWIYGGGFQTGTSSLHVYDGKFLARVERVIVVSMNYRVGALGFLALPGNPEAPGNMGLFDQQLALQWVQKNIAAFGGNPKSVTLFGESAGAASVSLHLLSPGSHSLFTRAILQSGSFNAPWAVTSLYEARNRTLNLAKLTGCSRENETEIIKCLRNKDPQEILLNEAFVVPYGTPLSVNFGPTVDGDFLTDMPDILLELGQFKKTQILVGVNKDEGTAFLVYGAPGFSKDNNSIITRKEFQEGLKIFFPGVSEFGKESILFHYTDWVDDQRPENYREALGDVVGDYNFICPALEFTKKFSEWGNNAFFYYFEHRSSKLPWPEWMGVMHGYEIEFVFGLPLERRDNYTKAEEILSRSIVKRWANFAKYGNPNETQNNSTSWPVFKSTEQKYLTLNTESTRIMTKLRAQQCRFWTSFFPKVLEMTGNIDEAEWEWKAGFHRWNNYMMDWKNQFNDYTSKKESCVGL
# Method: Ellman’s colorimetric method was used with modifications described previously. Tested sample (10 μL) at concentration 5 mg/mL was mixed with 20 μL of AChE (or BChE) solution (0.28 U/mL) and completed after 5 min with 35 μL of ATChI (or BTCh) (1.5 mmol/L), 175 μL of 0.3 mmol/L DTNB (containing 10 mmol/L NaCl and 2 mmol/L MgCl2) and 110 μL with Tris-HCl buffer (50 mmol/L, pH 8.0). Samples containing 10 μL of Tris-HCl buffer instead of the studied sample were run in the same way (“blank” samples). The increase in the absorbance due to the spontaneous hydrolysis of the substrate was monitored using “blank” samples containing ATCh (or BTCh) and DTNB completed to 350 μL with Tris-HCl buffer. All samples were incubated at 22 °C (30 min; incubation time was determined after optimization experiments, details not shown), and the absorbance was measured (405 nm, 96-well microplate reader, Tecan Sunrise, Grödig, Austria). The “false-positive” effect of studied compounds was measured according to Rhee et al. with minor modifications, as described previously: after mixing of the substrate with the enzyme and buffer, the “false-positive” sample was left for incubation. Then, a studied sample and DTNB were added, followed by an immediate measurement of the absorbance.
# Reference cholinesterase inhibitors were used for the calculations of results (eserine, neostigmine, magniflorine, rivastigmine and donepezil). For this purpose, for each compound, 16 dilutions in pure DMSO were prepared (2.57–41.14 μg/mL). These solutions (10 μL) were tested as described above and calibration curves were produced.
# Each sample was analyzed in at least eight repeats, and all solutions used in a set of analyses were prepared in the same buffer. For calculations, the background of the sample (10 μL mixed with 340 μL of Tris buffer) was measured at 405 nm and subtracted during calculations. Then, the absorbance of the test sample was subtracted from the absorbance of the “blank” sample.
# [2] = molecular target: T1, glutathione peroxidase (GPx) (Bos taurus, UniProt P00435); assay: Effect on glutathione peroxidase activity; format: biochemical; conditions: for inhibition at 243.9 µg/mL: read-out: GPx Inhibition under Reaction Conditions (%)
# T1 construct: purchased Sigma G6137
# T1 sequence (P00435 1-205): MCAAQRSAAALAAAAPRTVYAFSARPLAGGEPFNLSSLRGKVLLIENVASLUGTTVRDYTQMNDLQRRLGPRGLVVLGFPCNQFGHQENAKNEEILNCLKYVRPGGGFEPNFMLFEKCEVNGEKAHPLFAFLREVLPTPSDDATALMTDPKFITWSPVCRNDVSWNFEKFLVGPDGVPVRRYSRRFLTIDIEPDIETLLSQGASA
# Method: Sample (20 µL, 5 mg/mL of pure DMSO) was mixed with 8 μL of EDTA solution, 10 μL of glutathione reductase (0.2 U Sigma G3664), 4 μL of GSH solution, 10 μL of glutathione peroxidase (0.04 U Sigma G6137), 22 μL of H2O2 and 332 μL of 50 mM sodium phosphate, pH 7.0). To start the reaction, 4 μL of NADPH solution (N5130) was added and the decrease in the absorbance (340 nm) was read after 10 min of incubation at 25 °C. All solutions were prepared in 50 mM buffer and concentrations of reagents in the final mixture were as follows: 1mM EDTA, 0.2 U glutathione reductase, 2 mM GSH, 0.04 U glutathione peroxidase, 1.5 mM H2O2 and 0.8 mM NADPH. Blank sample was prepared with buffer instead of the studied sample and background was measured (mixture containing studied sample and buffer only). One unit of enzyme activity was defined as nMol of NADPH consumed/min·mL sample, in comparison with nMol of NADPH consumed/min in blank (reagent) sample [76].
# [3] = test system: T98G cell line; assay: MTT cell viability assay, 48 h, T98G; format: cell-based, Human; conditions: for IC50: Homo sapiens, T98G, read-out: IC50 T98G
# Method: Stock solutions in dimethylsulfoxide DMSO (Sigma-Aldrich, St. Louis, MO, USA), (10 mM for compounds and 10 mg/mL for extracts) were prepared and stored at −20 °C. For the experiments, the stock solutions were diluted ex tempore to the final selected concentration with complete cell culture medium.
# Human glioblastoma A-172 and T98G cell lines were purchased from the American Type Culture Collection (ATCC, Manassas, VA, USA), and the European Collection of Authenticated Cell Cultures (ECACC, Salisbury, UK), respectively. The cells were grown at 37 °C in 95% humidified and 5% CO2 atmosphere. Media recommended by the provider were used to cultivate the cells: ATCC-formulated Dulbecco’s modified Eagle’s medium (DMEM) (Sigma Aldrich, St. Louis, MO, USA), and ATCC-formulated Eagle’s Minimum Essential Medium (EMEM) (Sigma-Aldrich, St. Louis, MO, USA) were used for A-172 and T98G cells, respectively. Moreover, the media were supplemented with 10% fetal bovine serum (FBS) (Biowest, France) and 1% antibiotics (penicillin and streptomycin) solution (Sigma-Aldrich, St. Louis, MO, USA). The medium for the T98G cell line was additionally supplemented with 2 mM glutamine, 1% non-essential amino acids, and 1% sodium pyruvate (all obtained from Sigma Aldrich, St. Louis, MO, USA). For the experiments, the amount of FBS was reduced to 5%. All experiments were carried out 24 h after the cells were seeded on 96-well plates.
# The effect of the tested compounds and extracts on GBM cell viability was assessed by measuring the ability of cells to metabolize 3-(4,5-dimethylthiazol-2-yl)-2,5-diphenyl-tetrazolium bromide (MTT), as previously described. In brief, 1 × 10^4 cells per well were seeded on 96-well plates. After 24 h incubation, they were treated with varying concentrations of lichen-derived compounds (1, 5, 10, 25, 50 and 100 µM) and extracts (1, 5, 10, 25, 50 and 100 µg/mL). Cells treated with medium containing the respective concentrations of DMSO (Sigma-Aldrich, St. Louis, MO, USA) were used as a control. After 48 h incubation the cells were washed with phosphate-buffered saline (PBS) buffer and incubated for 4 h in the presence of PBS containing 0.5 mg/mL MTT salt (Merck, Darmstadt, Germany). Next, the formazan crystals were dissolved in acidic isopropanol. In order to enhance dissolution of formazan crystals the plates were shaken on the orbital shaker for 30 min. Finally, the absorbance was measured at λ = 570 nm and λ = 690 nm on the microplate reader (Tecan Infinite M200). All the experiments were repeated three times with at least four measurements per assay.
# [4] = 243.9 μg/mL in the reaction mixture
Compound,"Equivalent Reference Concentration, Donepezil, BChE [1] [µg/mL]","Equivalent Reference Concentration, Eserine, BChE [1] [µg/mL]","Equivalent Reference Concentration, Magniflorine, BChE [1] [µg/mL]","Equivalent Reference Concentration, Neostygmine, BChE [1] [µg/mL]","Equivalent Reference Concentration, Rivastigmine, BChE [1] [µg/mL]","GPx Inhibition under Reaction Conditions (%) [2, 4]","IC50 ([3]; 48 h treatment, MTT, ± SEM)","GPx Inhibitory Activity (nMol Depleted NADPH/min Incubation) [2, 4]",inhibition at 243.9 µg/mL [2] [%],IC50 ([3]; 48 h),"inhibition at 243.9 µg/mL [2, 4] [%]","reduction in cell viability T98G ([3]; highest tested concentration (100 µM), 48 h MTT)"
"Cc1cc(O)c(C=O)c2c1C(=O)Oc1c(CO)c(O)c3c(c1O2)C(O)OC3=O (stereo not shown) [Salazinic acid, salazinic acid]",7.9 ± 0.3,9.0 ± 0.1,43.2 ± 0.2,13.6 ± 0.1,70.9 ± 0.3,-,> 38.8 µg/mL and > 100 µM,,,,,
"CC(=O)C1=C(O)C=C2Oc3c(C(C)=O)c(O)c(C)c(O)c3C2(C)C1=O (single isomer, unassigned; (-)) [(−)-Usnic acid, (−)-usnic acid]",,,,,,,,27.3 ± 1.3 nMol Depleted NADPH/min Incubation,13.7 ± 2.3,13 µg/mL and 37.8 µM,,
"COc1cc(C)c(C(=O)Oc2cc(C)c(C(=O)O)c(O)c2)c(O)c1 [Evernic acid, evernic acid]",9.5 ± 0.0,10.9 ± 0.1,52.3 ± 0.1,16.5 ± 0.2,85.9 ± 0.1,,> 33.2 µg/mL and > 100 µM,39.9 ± 1.0 nMol Depleted NADPH/min Incubation,,,20 ± 2.1,~ 20%
